Measurements: paper PMC5548886 (Cancer Medicine, 2017)
Read-outs that look alike come from different tables or passages of the source.

What was measured:
PTEN = test: IHC of tumor biopsies, H-score change on-treatment vs pretreatment; type: in vivo, human
Description: (§1) Pharmacodynamic markers were examined using peripheral blood samples, tumor and nevi biopsies (when available) and tumor imaging. BRAF mutation status was determined by Sanger sequencing. Pharmacodynamic markers analyzed, in available tumor/nevus samples obtained before treatment or archival tissue and during treatment on cycle 1, day 8 or day 15, including cytoplasmic p‐MEK, p‐ERK, BIM, c‐KIT, p‐AKT473, pS6 and PTEN, and nuclear p‐ERK, Ki‐67, PARP, cyclin D1, MITF, p27, and p53. Biomarker expression was determined by calculating the percentage of change in the H‐score (14) between on‐treatment and fresh/archival pretreatment specimens. Blood levels of VEGFR‐2 and were assessed before and at multiple time points while on treatment using enzyme‐linked immunosorbent assay (ELISA). […] Changes in standard uptake value (SUV) were determined by a blinded, independent central imaging review panel. Complete metabolic response (CMR) was complete resolution of tumor FDG‐PET uptake so SUV is the same as background. Partial metabolic response (PMR) decrease in sum of the tumor SUV of ≥25% from the baseline scan. Progressive metabolic disease (PMD) was defined as an increase in tumor SUV of ≥25% from the baseline scan, or the appearance of new FDG‐PET uptake in metastatic lesions. Stable metabolic disease (SMD) was defined as a change in tumor SUV between the PMR and PMD criteria.

cytoplasmic p-ERK = test: as above; type: in vivo, human
Description: as §1

p53 = test: as above; type: in vivo, human
Description: as §1

nuclear p-ERK = test: as above; type: in vivo, human
Description: as §1

p27 = test: as above; type: in vivo, human
Description: as §1

Ki-67 = system: Ki-67
Description: as §1

Cn1c(Nc2ccc(C(F)(F)F)cc2)nc2cc(Oc3ccnc(-c4ncc(C(F)(F)F)[nH]4)c3)ccc21 [RAF265]
PTEN % change vs pretreatment, Mean (SD) (PTEN; DL 6, n 5): -9.4 (27) % | PTEN % change vs pretreatment, Median (PTEN; DL 6, n 5): 0% | PTEN % change vs pretreatment, Mean (SD) (PTEN; DLs 1 - 4, n 8): -5 (44.1) % | PTEN % change vs pretreatment, Median (PTEN; DLs 1 - 4, n 8): -7.4% | PTEN % change vs pretreatment, Mean (SD) (PTEN; DLs 7 and 7.1, n 3): 10 (17.3) % | PTEN % change vs pretreatment, Median (PTEN; DLs 7 and 7.1, n 3): 0% | p-ERK IHC staining, on-treatment versus pretreatment (cytoplasmic p-ERK; 23 patients): dose‐dependent p‐ERK inhibition | cytoplasmic pERK % change vs pretreatment, Mean (SD) (cytoplasmic p-ERK; All patients, n 13): -3.6 (48.6) % | cytoplasmic pERK % change vs pretreatment, Median (cytoplasmic p-ERK; All patients, n 13): -11.8% | cytoplasmic pERK % change vs pretreatment, Mean (SD) (cytoplasmic p-ERK; DL 5, n 2): +27.1 (56) % | cytoplasmic pERK % change vs pretreatment, Median (cytoplasmic p-ERK; DL 5, n 2): +27.1% | cytoplasmic pERK % change vs pretreatment, Mean (SD) (cytoplasmic p-ERK; DL 6, n 5): -27.0 (40.9) % | cytoplasmic pERK % change vs pretreatment, Median (cytoplasmic p-ERK; DL 6, n 5): -50.00% | cytoplasmic pERK % change vs pretreatment, Mean (SD) (cytoplasmic p-ERK; DLs 1 - 4, n 2): +52.3 (80) % | cytoplasmic pERK % change vs pretreatment, Median (cytoplasmic p-ERK; DLs 1 - 4, n 2): +52.3% | cytoplasmic pERK % change vs pretreatment, Mean (SD) (cytoplasmic p-ERK; DLs 7 and 7.1, n 4): -17.8 (11.5) % | cytoplasmic pERK % change vs pretreatment, Median (cytoplasmic p-ERK; DLs 7 and 7.1, n 4): -13.5% | p-ERK expression change (cytoplasmic p-ERK; patients treated at DL1-5): increase in p‐ERK expression | p-ERK abundance change (cytoplasmic p-ERK; patients treated at DL 6-7.1): moderately decreased p‐ERK abundance | P53 % change vs pretreatment, Mean (SD) (p53; All patients, n 20): +42.14 (195.033) % | P53 % change vs pretreatment, Mean (SD) (p53; DL 5, n 2): +82.33(190.5) % | P53 % change vs pretreatment, Median (p53; DL 5, n 2): +82.4% | P53 % change vs pretreatment, Mean (SD) (p53; DL 6, n 4): +49.32 (123.273) % | P53 % change vs pretreatment, Median (p53; DL 6, n 4): -3.8% | P53 % change vs pretreatment, Mean (SD) (p53; DLs 1 - 4, n 10): -27.30 (49.484) % | P53 % change vs pretreatment, Median (p53; DLs 1 - 4, n 10): -29.2% | P53 % change vs pretreatment, Mean (SD) (p53; DLs 7 and 7.1, n 4): +188.5 (400.62) % | P53 % change vs pretreatment, Median (p53; DLs 7 and 7.1, n 4): 0% | nuclear pERK % change vs pretreatment, Mean (SD) (nuclear p-ERK; All patients, n 21): -2 (51.6) % | nuclear pERK % change vs pretreatment, Median (nuclear p-ERK; All patients, n 21): 0% | nuclear pERK % change vs pretreatment, Mean (SD) (nuclear p-ERK; DL 5, n 2): +18.2 (35.8) % | nuclear pERK % change vs pretreatment, Median (nuclear p-ERK; DL 5, n 2): +18.2% | nuclear pERK % change vs pretreatment, Mean (SD) (nuclear p-ERK; DL 6, n 5): -41.8 (48) % | nuclear pERK % change vs pretreatment, Median (nuclear p-ERK; DL 6, n 5): -22.2% | nuclear pERK % change vs pretreatment, Mean (SD) (nuclear p-ERK; DLs 1 - 4, n 10): +21.1 (52.13) % | nuclear pERK % change vs pretreatment, Median (nuclear p-ERK; DLs 1 - 4, n 10): 0% | nuclear pERK % change vs pretreatment, Mean (SD) (nuclear p-ERK; DLs 7 and 7.1, n 4): -20.3 (31.3) % | nuclear pERK % change vs pretreatment, Median (nuclear p-ERK; DLs 7 and 7.1, n 4): -7.6% | P27 % change vs pretreatment, Mean (SD) (p27; All patients, n 20): +86 (251.9) % | P27 % change vs pretreatment, Median (p27; All patients, n 20): +5% | P27 % change vs pretreatment, Mean (SD) (p27; DL 5, n 2): -40 (56.6) % | P27 % change vs pretreatment, Median (p27; DL 5, n 2): -40% | p27 abundance, median increase (p27; DL 6): 30.4% | P27 % change vs pretreatment, Mean (SD) (p27; DL 6, n 5): +156.4 (312.2) % | P27 % change vs pretreatment, Median (p27; DL 6, n 5): +30.4% | p27 abundance, median increase (p27; DL 7/7.1): 72.2% | P27 % change vs pretreatment, Mean (SD) (p27; DLs 1 - 4, n 9): -2.2 (44) % | P27 % change vs pretreatment, Median (p27; DLs 1 - 4, n 9): 0% | P27 % change vs pretreatment, Mean (SD) (p27; DLs 7 and 7.1, n 4): +261.1 (427.3) % | P27 % change vs pretreatment, Median (p27; DLs 7 and 7.1, n 4): +72.2% | Ki67 % change vs pretreatment, Mean (SD) (Ki-67; All patients, n 23): -13.46 (50) % | Ki67 % change vs pretreatment, Median (Ki-67; All patients, n 23): -11.1% | Ki67 % change vs pretreatment, Mean (SD) (Ki-67; DL 5, n 2): 0% | Ki67 % change vs pretreatment, Median (Ki-67; DL 5, n 2): 0% | Ki67 decrease (Ki-67; DL 6): up to 51.8% | Ki67 % change vs pretreatment, Mean (SD) (Ki-67; DL 6, n 6): -47.93 (40.8) % | Ki67 % change vs pretreatment, Median (Ki-67; DL 6, n 6): -51.8% | Ki67 % change vs pretreatment, Mean (SD) (Ki-67; DLs 1 - 4, n 11): +0.21 (59) % | Ki67 % change vs pretreatment, Median (Ki-67; DLs 1 - 4, n 11): -11.1% | Ki67 % change vs pretreatment, Mean (SD) (Ki-67; DLs 7 and 7.1, n 4): -6.08 (20) % | Ki67 % change vs pretreatment, Median (Ki-67; DLs 7 and 7.1, n 4): -2.6%
